Test results reported in US8575306B2, “Target and method for inhibition of bacterial RNA polymerase” (Rutgers, The State University of New Jersey, priority 2002, dated 2013).
Where a SMILES comes first, the peptide text is derived from it.

Columns and labels:
RNAP secondary channel = RNAP secondary channel (Escherichia coli, UniProt P0A8T7); experiment: Fluorescence-resonance-energy-transfer experiments with a fluorochrome-labelled MccJ25 derivative; format: binding; settings: preliminary results
RNAP secondary channel, sequence (P0A7Z4 whole entry): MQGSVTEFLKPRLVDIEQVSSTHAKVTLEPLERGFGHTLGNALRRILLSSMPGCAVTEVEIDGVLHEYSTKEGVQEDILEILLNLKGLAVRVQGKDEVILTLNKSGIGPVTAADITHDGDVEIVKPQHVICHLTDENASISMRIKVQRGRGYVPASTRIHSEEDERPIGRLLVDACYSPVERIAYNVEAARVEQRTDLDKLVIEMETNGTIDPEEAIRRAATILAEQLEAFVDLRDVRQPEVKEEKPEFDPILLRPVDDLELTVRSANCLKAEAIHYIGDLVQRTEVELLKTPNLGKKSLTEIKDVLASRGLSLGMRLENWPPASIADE
RNAP secondary channel, sequence (P0A8T7 whole entry): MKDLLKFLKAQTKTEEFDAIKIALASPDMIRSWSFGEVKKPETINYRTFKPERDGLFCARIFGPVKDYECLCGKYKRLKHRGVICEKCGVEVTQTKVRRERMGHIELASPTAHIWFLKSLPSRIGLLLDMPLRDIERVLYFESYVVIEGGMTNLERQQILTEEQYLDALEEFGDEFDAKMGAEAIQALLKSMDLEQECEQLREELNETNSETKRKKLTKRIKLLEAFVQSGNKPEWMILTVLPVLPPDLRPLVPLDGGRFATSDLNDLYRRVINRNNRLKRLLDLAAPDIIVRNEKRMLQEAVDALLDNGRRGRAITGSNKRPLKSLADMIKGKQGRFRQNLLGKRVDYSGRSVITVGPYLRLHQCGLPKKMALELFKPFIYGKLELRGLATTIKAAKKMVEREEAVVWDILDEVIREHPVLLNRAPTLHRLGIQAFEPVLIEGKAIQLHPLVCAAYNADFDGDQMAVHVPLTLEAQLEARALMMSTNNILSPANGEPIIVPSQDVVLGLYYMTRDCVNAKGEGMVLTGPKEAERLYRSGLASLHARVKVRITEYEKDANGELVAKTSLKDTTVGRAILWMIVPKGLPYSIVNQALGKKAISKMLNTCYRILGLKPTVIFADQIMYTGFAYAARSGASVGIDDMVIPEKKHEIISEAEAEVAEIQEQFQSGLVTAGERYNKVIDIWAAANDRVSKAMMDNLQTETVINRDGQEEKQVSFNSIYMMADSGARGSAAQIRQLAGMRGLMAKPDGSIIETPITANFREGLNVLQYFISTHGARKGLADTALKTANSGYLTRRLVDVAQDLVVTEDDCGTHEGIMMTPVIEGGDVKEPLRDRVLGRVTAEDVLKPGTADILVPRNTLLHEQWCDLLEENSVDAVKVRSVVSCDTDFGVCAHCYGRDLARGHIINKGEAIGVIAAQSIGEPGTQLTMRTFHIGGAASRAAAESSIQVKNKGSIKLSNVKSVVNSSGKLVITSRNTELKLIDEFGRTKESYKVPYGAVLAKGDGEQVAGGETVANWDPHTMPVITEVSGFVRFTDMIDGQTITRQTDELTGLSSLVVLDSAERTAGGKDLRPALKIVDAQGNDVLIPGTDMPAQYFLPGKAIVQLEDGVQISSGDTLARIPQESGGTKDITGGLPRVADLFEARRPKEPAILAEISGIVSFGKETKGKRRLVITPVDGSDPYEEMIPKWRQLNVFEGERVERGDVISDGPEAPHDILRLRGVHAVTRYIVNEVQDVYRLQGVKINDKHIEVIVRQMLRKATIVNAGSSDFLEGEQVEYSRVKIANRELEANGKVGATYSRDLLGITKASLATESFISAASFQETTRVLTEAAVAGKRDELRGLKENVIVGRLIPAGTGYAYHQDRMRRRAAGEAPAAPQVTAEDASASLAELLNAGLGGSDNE
RNAP secondary channel, sequence (P0A800 whole entry, further chain): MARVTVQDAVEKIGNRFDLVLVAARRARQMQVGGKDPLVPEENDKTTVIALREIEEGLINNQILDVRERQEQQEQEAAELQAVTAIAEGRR
RNAP secondary channel, sequence (P0A8V2 whole entry, further chain): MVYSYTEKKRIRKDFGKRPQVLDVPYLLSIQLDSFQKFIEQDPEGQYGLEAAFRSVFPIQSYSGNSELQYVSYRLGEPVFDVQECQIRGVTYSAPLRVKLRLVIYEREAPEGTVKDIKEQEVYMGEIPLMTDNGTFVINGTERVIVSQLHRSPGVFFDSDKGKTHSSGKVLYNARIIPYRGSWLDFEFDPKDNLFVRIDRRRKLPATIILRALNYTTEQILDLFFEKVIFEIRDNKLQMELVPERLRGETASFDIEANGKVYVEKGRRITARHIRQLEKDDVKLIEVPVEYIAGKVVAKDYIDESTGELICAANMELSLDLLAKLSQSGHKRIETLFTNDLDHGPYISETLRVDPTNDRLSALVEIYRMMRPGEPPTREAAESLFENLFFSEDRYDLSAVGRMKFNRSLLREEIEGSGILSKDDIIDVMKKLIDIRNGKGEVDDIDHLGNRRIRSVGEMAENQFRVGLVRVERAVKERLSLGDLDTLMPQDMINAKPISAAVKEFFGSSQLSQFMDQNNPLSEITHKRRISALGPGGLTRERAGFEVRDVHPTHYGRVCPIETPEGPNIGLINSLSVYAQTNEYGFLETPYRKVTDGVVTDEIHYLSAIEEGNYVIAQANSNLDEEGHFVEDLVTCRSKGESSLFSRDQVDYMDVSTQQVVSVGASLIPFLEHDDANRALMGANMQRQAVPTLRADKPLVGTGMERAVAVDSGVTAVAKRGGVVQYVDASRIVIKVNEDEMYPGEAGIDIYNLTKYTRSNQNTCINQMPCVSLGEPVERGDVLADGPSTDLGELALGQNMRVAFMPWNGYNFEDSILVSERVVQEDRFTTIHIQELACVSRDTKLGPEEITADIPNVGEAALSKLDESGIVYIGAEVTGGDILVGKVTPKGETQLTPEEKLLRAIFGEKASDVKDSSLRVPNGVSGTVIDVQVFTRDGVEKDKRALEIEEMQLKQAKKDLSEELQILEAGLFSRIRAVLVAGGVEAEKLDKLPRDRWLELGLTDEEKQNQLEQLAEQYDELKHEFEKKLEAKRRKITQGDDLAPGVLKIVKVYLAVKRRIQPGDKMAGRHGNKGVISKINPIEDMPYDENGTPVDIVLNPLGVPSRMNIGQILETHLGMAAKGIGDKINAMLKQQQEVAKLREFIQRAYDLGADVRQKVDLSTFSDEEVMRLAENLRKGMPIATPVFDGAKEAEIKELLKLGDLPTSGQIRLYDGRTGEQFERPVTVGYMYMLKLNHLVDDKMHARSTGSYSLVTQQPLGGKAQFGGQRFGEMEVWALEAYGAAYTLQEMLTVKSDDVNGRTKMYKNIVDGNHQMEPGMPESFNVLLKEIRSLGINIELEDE
Text: The results of Yuzenkova et al., (2002) J. Biol. Chem. 277, 50867-50875, although limited, also indicate that inhibition involves a multi-residue determinant within the RNAP secondary channel (five sites for substitutions conferring MccJ25-resistance). […] The RNAP secondary channel is a 25 Å long, ˜10-15 Å wide, fully enclosed tunnel through which NTPs must pass to access the RNAP active-center and NTP binding site (Zhang et al., (1999) Cell 98, 811-824; Cramer et al., (2001) Science 292, 1863-1876; and Ebright (2000) J. Mol. Biol. 304, 687-689).

[1] = system: Strain DH5α transformed with a pRL663 derivative (substituted RNAP β′ subunit); experiment: Minimum bacteriocidal concentration (MBC) assays, MccJ25-resistant rpoC mutants; format: cell-based, Escherichia coli; settings: for MBC (minimum bacteriocidal concentration): 2 hr at 37° C.
Description: (RNAP β′ subunit comprises nearly one-half of all residues of RNAP and comprises all residues of the RNAP secondary channel). Mutagenesis using error-prone PCR was performed (Zhou (1991) Nucl. Acids Res. 19, 6052; Zhou et al., (1993) Proc. Natl. Acad. Sci. USA 90, 6081-6085) of five DNA segments spanning the length of a plasmid-borne rpoC gene (Table 1). Overall, 20 mutagenesis reactions were performed, ˜100,000 candidates were analyzed, and 22 independent plasmid-linked MccJ25-resistant mutants were isolated (Table 1). […] Complementation assays indicate that all 22 MccJ25-resistant mutants can complement an rpoC^ts mutant for growth at the non-permissive temperature, confirming that each encodes a β′ derivative functional in transcription—indeed sufficiently functional in transcription to support viability (Table 2, column 4).
A saturation mutagenesis using a set often “doped” oligodeoxyribonucleotide primers, designed to introduce all possible nucleotide substitutions at all positions of all codons for residues that line the RNAP secondary channel was performed (sequences in Table 3; methods essentially as in the following references (Ner et al., (1988) DNA 7, 127-134; Hermes et al., (1989) Gene 84, 143-151; and Niu et al., (1994) J. Mol. Biol. 243, 595-602). In total, 23 mutagenesis reactions were performed, ˜40,000 candidates were analyzed, and 105 independent plasmid-linked MccJ25-resistant mutants were isolated and characterized (Table 4).

[2] = system: Gram-negative bacterial species, including E. coli; settings: Salomon and Farias (1992); cited from earlier work
RNAP holoenzyme = target: T1, RNAP holoenzyme (Escherichia coli, UniProt P0A8T7); experiment: Fluorescence-detected abortive initiation assays; format: biochemical; settings: iterative tri- and tetranucleotide synthesis
T1 construct: RNAP holoenzyme was prepared from, strain XE54/pREII-NHα; made in house; host or cells: E. coli strain XE54/pREII-NHα
Description: Following 15 min at 37° C. 0.5 μl mg/ml heparin was added, and, following a further 2 min at 37° C., 1 μl of 0.25-5 mM (y-AmNS)UTP (Molecular Probes, Inc.) was added, and reaction mixtures were transferred to sub-micro fluorometer cuvettes (Starna Cells, Inc.). Following 2 min at 37° C., RNA synthesis was initiated by addition of 2.5 μl 10 mM ApA, and fluorescence emission intensity was monitored 5 min at 37° C. [excitation wavelength=360 nm and emission wavelength=500 nm; excitation and emission slit widths=4 nm; QuantaMaster QM1 spectrofluororaeter (PTI, Inc).]. The quantity of UMP incorporated into RINA was determined from the quantity of (γ−AmNS)UTP consumed, which, in turn, was calculated as follows (Schlageck et al. 1979): (γ−AmNS)UTPconsumed=[(γ−AmNS)UTP0](Ft−F0)/(12.4×F0) where (γ−AmNS)UTP0 is the quantity of (γ−AmNS)UTP at time 0, F0 is the fluorescence emission intensity at time 0, and Ft is the fluorescence emission intensity at time t. Data were fit to full-competitive, partial-competitive, full-noncompetitive, partial-noncompetitive, full-uncompetitive, partial-uncompetitive, full-mixed, and partial-mixed models of inhibition as in the preceding section.

## CC[C@H](C)[C@H](NC(=O)CNC(=O)[C@@H](NC(=O)[C@H](Cc1ccccc1)NC(=O)[C@H](Cc1ccc(O)cc1)NC(=O)[C@@H]1CCC(=O)NCC(=O)NCC(=O)N[C@@H](C)C(=O)NCC(=O)N[C@@H](Cc2c[nH]cn2)C(=O)N[C@@H](C(C)C)C(=O)N2CCC[C@H]2C(=O)N1)C(C)C)C(=O)NCC(=O)N[C@H](C(=O)N1CCC[C@H]1C(=O)N[C@H](C(=O)N[C@@H](CO)C(=O)N[C@@H](Cc1ccccc1)C(=O)N[C@@H](Cc1ccc(O)cc1)C(=O)NCC(=O)O)[C@@H](C)CC)[C@@H](C)O [MccJ25] (HELM PEPTIDE1{G.G.A.G.H.V.P.E.Y.F.V.G.I.G.T.P.I.S.F.Y.G}$PEPTIDE1,PEPTIDE1,1:R1-8:R3$$$V2.0)
RNAP secondary channel
  binding site on RNAP: binds within the RNAP secondary channel
[1]; 18 of 22 MccJ25-resistant mutants from random mutagenesis
  increase in MBC: ≥ 50 fold
[1]; all 22 MccJ25-resistant mutants from random mutagenesis
  increase in MBC: ≥ 50 fold
[1]; β′ 428 Thr->Asn
  MBC (minimum bacteriocidal concentration): 0.5 mg/mi
[1]; β′ 428 Thr->Ile
  MBC (minimum bacteriocidal concentration): 0.5 mg/mi
[1]; β′ 429 Leu->Gln
  MBC (minimum bacteriocidal concentration): 0.5 mg/mi
[1]; β′ 430 His->Tyr
  MBC (minimum bacteriocidal concentration): 0.5 mg/mi
[1]; β′ 498 Pro->Gln
  MBC (minimum bacteriocidal concentration): 1 mg/mi
[1]; β′ 498 Pro->Leu
  MBC (minimum bacteriocidal concentration): 1 mg/mi
[1]; β′ 503 Ser->Pro
  MBC (minimum bacteriocidal concentration): 0.5 mg/mi
[1]; β′ 503 Ser->Tyr
  MBC (minimum bacteriocidal concentration): 0.5 mg/mi
[1]; β′ 504 Gln->Arg
  MBC (minimum bacteriocidal concentration): 0.5 mg/mi
[1]; β′ 504 Gln->Glu
  MBC (minimum bacteriocidal concentration): 0.5 mg/mi
[1]; β′ 508 Leu->Val
  MBC (minimum bacteriocidal concentration): 0.05 mg/mi
[1]; β′ 680 Asn->Lys
  MBC (minimum bacteriocidal concentration): 0.5 mg/mi
[1]; β′ 684 Asp->Ala
  MBC (minimum bacteriocidal concentration): 1 mg/mi
[1]; β′ 684 Asp->Glu
  MBC (minimum bacteriocidal concentration): 0.5 mg/mi
[1]; β′ 684 Asp->Tyr
  MBC (minimum bacteriocidal concentration): 0.5 mg/mi
[1]; β′ 684 Asp->Vai
  MBC (minimum bacteriocidal concentration): 0.5 mg/mi
[1]; β′ 732 Gly->Asp
  MBC (minimum bacteriocidal concentration): 0.1 mg/mi
[1]; β′ 733 Ser->Phe
  MBC (minimum bacteriocidal concentration): 0.1 mg/mi
[1]; β′ 733 Ser->Tyr
  MBC (minimum bacteriocidal concentration): 0.1 mg/mi
[1]; β′ 733 Ser->Val
  MBC (minimum bacteriocidal concentration): 0.5 mg/mi
[1]; β′ 735 Ala->Δ
  MBC (minimum bacteriocidal concentration): 1 mg/mi
[1]; β′ 736 Gln->Pro
  MBC (minimum bacteriocidal concentration): 0.5 mg/mi
[1]; β′ 738 Arg->Leu
  MBC (minimum bacteriocidal concentration): 0.05 mg/mi
[1]; β′ 744 Arg->His
  MBC (minimum bacteriocidal concentration): 0.05 mg/mi
[1]; β′ 744 Arg->Pro
  MBC (minimum bacteriocidal concentration): 0.05 mg/mi
[1]; β′ 748 Ala->Pro
  MBC (minimum bacteriocidal concentration): 0.1 mg/mi
[1]; β′ 775 Ser->Cys
  MBC (minimum bacteriocidal concentration): 0.5 mg/mi
[1]; β′ 776 Thr->Ile
  MBC (minimum bacteriocidal concentration): 0.5 mg/mi
[1]; β′ 777 His->Pro
  MBC (minimum bacteriocidal concentration): 0.5 mg/mi
[1]; β′ 777 His->Tyr
  MBC (minimum bacteriocidal concentration): 1 mg/mi
[1]; β′ 779 Ala->Gly
  MBC (minimum bacteriocidal concentration): 0.5 mg/mi
[1]; β′ 779 Ala->Pro
  MBC (minimum bacteriocidal concentration): 0.5 mg/mi
[1]; β′ 779 Ala->Thr
  MBC (minimum bacteriocidal concentration): 1 mg/mi
[1]; β′ 780 Arg->Cys
  MBC (minimum bacteriocidal concentration): 1 mg/mi
[1]; β′ 782 Gly->Ala
  MBC (minimum bacteriocidal concentration): 1 mg/mi
[1]; β′ 783 Leu->Pro
  MBC (minimum bacteriocidal concentration): 0.1 mg/mi
[1]; β′ 784 Ala->Glu
  MBC (minimum bacteriocidal concentration): 0.5 mg/mi
[1]; β′ 785 Asp->Gly
  MBC (minimum bacteriocidal concentration): 0.5 mg/mi
[1]; β′ 786 Thr->Ala
  MBC (minimum bacteriocidal concentration): 0.5 mg/mi
[1]; β′ 786 Thr->Ile
  MBC (minimum bacteriocidal concentration): 0.5 mg/mi
[1]; β′ 788 Leu->Met
  MBC (minimum bacteriocidal concentration): 1 mg/mi
[1]; β′ 789 Lys->Arg
  MBC (minimum bacteriocidal concentration): 0.5 mg/mi
[1]; β′ 789 Lys->Asn
  MBC (minimum bacteriocidal concentration): 1 mg/mi
[1]; β′ 789 Lys->Gln
  MBC (minimum bacteriocidal concentration): 1 mg/mi
[1]; β′ 790 Thr->Ala
  MBC (minimum bacteriocidal concentration): 1 mg/mi
[1]; β′ 790 Thr->Asn
  MBC (minimum bacteriocidal concentration): 0.5 mg/mi
[1]; β′ 790 Thr->Ile
  MBC (minimum bacteriocidal concentration): 1 mg/mi
[1]; β′ 790 Thr->Ser
  MBC (minimum bacteriocidal concentration): 0.5 mg/mi
[1]; β′ 922 Cys->Tyr
  MBC (minimum bacteriocidal concentration): 0.5 mg/mi
[1]; β′ 926 Pro->Ser
  MBC (minimum bacteriocidal concentration): 0.5 mg/mi
[1]; β′ 927 Gly->Cys
  MBC (minimum bacteriocidal concentration): 1 mg/mi
[1]; β′ 927 Gly->Ser
  MBC (minimum bacteriocidal concentration): 1 mg/mi
[1]; β′ 930 Leu->Met
  MBC (minimum bacteriocidal concentration): 1 mg/mi
[1]; β′ 931 Thr->Ala
  MBC (minimum bacteriocidal concentration): 1 mg/mi
[1]; β′ 931 Thr->Ile
  MBC (minimum bacteriocidal concentration): 1 mg/mi
[1]; β′ 932 Met->Ile
  MBC (minimum bacteriocidal concentration): 1 mg/mi
[1]; β′ 933 Arg->Cys
  MBC (minimum bacteriocidal concentration): 1 mg/mi
[1]; β′ 1136 Gly->Ala
  MBC (minimum bacteriocidal concentration): 0.5 mg/mi
[1]; β′ 1136 Gly->Cys
  MBC (minimum bacteriocidal concentration): 1 mg/mi
[1]; β′ 1137 Gly->Aia
  MBC (minimum bacteriocidal concentration): 0.5 mg/mi
[1]; β′ 1137 Gly->Arg
  MBC (minimum bacteriocidal concentration): 1 mg/mi
[1]; β′ 1240 Val->Glu
  MBC (minimum bacteriocidal concentration): 0.5 mg/mi
[1]; β′ 1241 Tyr->Cys
  MBC (minimum bacteriocidal concentration): 0.1 mg/mi
[1]; β′ 1241 Tyr->His
  MBC (minimum bacteriocidal concentration): 0.1 mg/mi
[1]; β′ 1241 Tyr->Ser
  MBC (minimum bacteriocidal concentration): 0.1 mg/mi
[1]; β′ 1244 Gln->Glu
  MBC (minimum bacteriocidal concentration): 0.1 mg/mi
[1]; β′ 1244 Gln->Leu
  MBC (minimum bacteriocidal concentration): 0.5 mg/mi
[1]; β′ 1244 Gln->Pro
  MBC (minimum bacteriocidal concentration): 0.1 mg/mi
[1]; β′ 1247 Lys->Gln
  MBC (minimum bacteriocidal concentration): 0.1 mg/mi
[1]; β′ 1247 Lys->Glu
  MBC (minimum bacteriocidal concentration): 0.1 mg/mi
[1]; β′ 1248 lle->Ser
  MBC (minimum bacteriocidal concentration): 0.1 mg/mi
[1]; β′ multiple-substitution mutant 493 Pro->Thr, 498 Pro->Thr
  MBC (minimum bacteriocidal concentration): 0.1 mg/mi
[1]; β′ multiple-substitution mutant 732 Gly->Asp, 733 Ser->Ala
  MBC (minimum bacteriocidal concentration): 0.1 mg/mi
[1]; β′ multiple-substitution mutant 732 Gly->Asp, 735 Gly->Thr
  MBC (minimum bacteriocidal concentration): 0.5 mg/mi
[1]; β′ multiple-substitution mutant 733 Ser->Val, 734 Ala->Gly
  MBC (minimum bacteriocidal concentration): 0.1 mg/mi
[1]; β′ multiple-substitution mutant 777 His->Ser, 778 Gly->Ala
  MBC (minimum bacteriocidal concentration): 0.5 mg/mi
[2]
  bacteriocidal activity: exhibits bacteriocidal activity
RNAP holoenzyme
  mode of inhibition: partial-competitive
